Assay results published in patent publication US11634447B2 (priority 2012, dated 2023).

Each compound was assayed on bacterial strain LF82 binding to the glycoprotein BSA-(Mannose)3 (assay: Bacterial Binding Assay (BBA)). Details: read-out: Bacterial Binding Assay IC50, LF82/Luciferase strain binding to BSA-(Man)3 coated plates, luminescence.
Type: cell-based, Escherichia coli
Method in brief: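 Inhibition of LF82/luciferase E. coli adhesion is read as luminescence after washing off unbound cells. Compound and bacteria (10^7 per well) are co-incubated 40-75 min at room temperature on wells coated with 0.5-2 μg/mL BSA-(Man)3, with BSA-only wells as background; IC50 values derived.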

SMILES	IC50 [nM]
O=C(c1ccno1)c1c(C#C[C@H]2O[C@H](CO)[C@@H](O)[C@H](O)[C@@H]2O)ccc2c1C1(CCNCC1)c1cc(C#C[C@H]3O[C@H](CO)[C@@H](O)[C@H](O)[C@@H]3O)ccc1-2 [Compound 232, [2,7-bis[2-[(2R,3S,4R,5S,6R)-3,4,5-trihydroxy-6-(hydroxymethyl)tetrahydropyran-2-yl]ethynyl]spiro[fluorene-9,4piperidine]-1yl]-isoxazol-5-yl-methanone]	0.04
OC[C@H]1O[C@H](C#Cc2ccc(C#C[C@H]3O[C@H](CO)[C@@H](O)[C@H](O)[C@@H]3O)c(-c3ccccc3)c2)[C@@H](O)[C@@H](O)[C@@H]1O [Compound 77, (2R,3S,4R,5S,6R)-2-(hydroxymethyl)-6-[2-[3-phenyl-4-[2-[(2R,3S,4R,5S,6R)-3,4,5-trihydroxy-6-(hydroxymethyl)tetrahydropyran-2-yl]ethynyl]phenyl]ethynyl]tetrahydropyran-3,4,5-triol]	4
O=C1CCCN1CCn1c2cc(C#C[C@H]3O[C@H](CO)[C@@H](O)[C@H](O)[C@@H]3O)ccc2c2ccc(C#C[C@H]3O[C@H](CO)[C@@H](O)[C@H](O)[C@@H]3O)cc21 [Compound 190, 1-[2-[2,7-bis[2-[(2R,3S,4R,5S,6R)-3,4,5-trihydroxy-6-(hydroxymethyl)tetrahydropyran-2-yl]ethynyl]carbazol-9-yl]ethyl]pyrrolidin-2-one]	1.1
O=C1CCC2(CCO1)c1cc(C#C[C@H]3O[C@H](CO)[C@@H](O)[C@H](O)[C@@H]3O)ccc1-c1ccc(C#C[C@H]3O[C@H](CO)[C@@H](O)[C@H](O)[C@@H]3O)cc12 [Compound 218, 2,7-bis[2-[(2R,3S,4R,5S,6R)-3,4,5-trihydroxy-6-(hydroxymethyl)tetrahydropyran-2-yl]ethynyl]spiro[fluorene-9,5oxepane]-2one]	0.09
Cc1cc(C#C[C@H]2O[C@H](CO)[C@@H](O)[C@H](O)[C@@H]2O)c(Cl)cc1C#C[C@H]1O[C@H](CO)[C@@H](O)[C@H](O)[C@@H]1O [Compound 90, (2R,3S,4R,5S,6R)-2-[2-[2-chloro-5-methy1-4-[2-[(2R,3S,4R,5S,6R)-3,4,5-trihydroxy-6-(hydroxymethyl)tetrahydropyran-2-yl]ethynyl]phenyl]ethynyl]-6-(hydroxymethyl)tetrahydropyran-3,4,5-triol]	36
O=C(c1c(C#C[C@H]2O[C@H](CO)[C@@H](O)[C@H](O)[C@@H]2O)ccc2c1C1(CCNCC1)c1cc(C#C[C@H]3O[C@H](CO)[C@@H](O)[C@H](O)[C@@H]3O)ccc1-2)[C@H]1CCCO1 [Compound 233, [2,7-bis[2-[(2R,3S,4R,5S,6R)-3,4,5-trihydroxy-6-(hydroxymethyl)tetrahydropyran-2-yl]ethynyl]spiro[fluorene-9,4piperidine]-1yl]-[(2R)-tetrahydrofuran-2-yl]methanone]	0.05
NC(=O)CCC(=O)c1c(C#C[C@H]2O[C@H](CO)[C@@H](O)[C@H](O)[C@@H]2O)ccc2c1C1(CCNCC1)c1cc(C#C[C@H]3O[C@H](CO)[C@@H](O)[C@H](O)[C@@H]3O)ccc1-2 [Compound 234, 4-[2,7-bis[2-[(2R,3S,4R,5S,6R)-3,4,5-trihydroxy-6-(hydroxymethyl)tetrahydropyran-2-yl]ethynyl]spiro[fluorene-9,4piperidine]-1yl]-4-oxo-butanamide]	0.04
Cn1ccc(C(=O)c2c(C#C[C@H]3O[C@H](CO)[C@@H](O)[C@H](O)[C@@H]3O)ccc3c2C2(CCNCC2)c2cc(C#C[C@H]4O[C@H](CO)[C@@H](O)[C@H](O)[C@@H]4O)ccc2-3)n1 [Compound 238, [2,7-bis[2-[(2R,3S,4R,5S,6R)-3,4,5-trihydroxy-6-(hydroxymethyl)tetrahydropyran-2-yl]ethynyl]spiro[fluorene-9,4piperidine]-1yl]-(1-methylpyrazol-3-yl)methanone]	0.09
COc1cc(-c2ccc([C@H]3O[C@H](CO)[C@@H](O)[C@H](O)[C@@H]3O)cc2)ccc1[C@H]1O[C@H](CO)[C@@H](O)[C@H](O)[C@@H]1O [Compound 151]	185
OC[C@H]1O[C@H](c2cccc(-c3ccc(-c4cccc([C@H]5O[C@H](CO)[C@@H](O)[C@H](O)[C@@H]5O)c4)cc3)c2)[C@@H](O)[C@@H](O)[C@@H]1O [Compound 139, (2R,3S,4R,5S,6R)-2-(hydroxymethyl)-6-[3-[4-[3-[(2R,3S,4R,5S,6R)-3,4,5-trihydroxy-6-(hydroxymethyl)tetrahydropyran-2-yl]phenyl]phenyl]phenyl]tetrahydropyran-3,4,5-triol]	46
CN(C)C(=O)Cn1c2cc(C#C[C@H]3O[C@H](CO)[C@@H](O)[C@H](O)[C@@H]3O)ccc2c2ccc(C#C[C@H]3O[C@H](CO)[C@@H](O)[C@H](O)[C@@H]3O)cc21 [Compound 181, 2-[2,7-bis[2-[(2R,3S,4R,5S,6R)-3,4,5-trihydroxy-6-(hydroxymethyl)tetrahydropyran-2-yl]ethynyl]carbazol-9-yl]-N,N-dimethyl-acetamide]	10
Cn1c2cc(C#C[C@H]3O[C@H](CO)[C@@H](O)[C@H](O)[C@@H]3O)ccc2c2ccc(C#C[C@H]3O[C@H](CO)[C@@H](O)[C@H](O)[C@@H]3O)cc21 [Compound 112, (2R,3S,4R,5S,6R)-2-(hydroxymethyl)-6-[2-[9-methyl-7-[2-[(2R,3S,4R,5S,6R)-3,4,5-trihydroxy-6-(hydroxymethyl)tetrahydropyran-2-yl]ethynyl]carbazol-2-yl]ethynyl]tetrahydropyran-3,4,5-triol]	17
O=C(c1c(C#C[C@H]2O[C@H](CO)[C@@H](O)[C@H](O)[C@@H]2O)ccc2c1C1(CCNCC1)c1cc(C#C[C@H]3O[C@H](CO)[C@@H](O)[C@H](O)[C@@H]3O)ccc1-2)C1CCC1 [Compound 226, [2,7-bis[2-[(2R,3S,4R,5S,6R)-3,4,5-trihydroxy-6-(hydroxymethyl)tetrahydropyran-2-yl]ethynyl]spiro[fluorene-9,4piperidine]-1yl]-cyclobutyl-methanone]	0.06
OC[C@H]1O[C@H](C#Cc2ccc(C#C[C@H]3O[C@H](CO)[C@@H](O)[C@H](O)[C@@H]3O)c(C(F)(F)F)c2)[C@@H](O)[C@@H](O)[C@@H]1O [Compound 91, (2R,3S,4R,5S,6R)-2-(hydroxymethyl)-6-[2-[3-(trifluoromethyl)-4-[2-[(2R,3S,4R,5S,6R)-3,4,5-trihydroxy-6-(hydroxymethyl)tetrahydropyran-2-yl]ethynyl]phenyl]ethynyl]tetrahydropyran-3,4,5-triol]	58
O=C1CC[C@H](C(=O)c2c(C#C[C@H]3O[C@H](CO)[C@@H](O)[C@H](O)[C@@H]3O)ccc3c2C2(CCNCC2)c2cc(C#C[C@H]4O[C@H](CO)[C@@H](O)[C@H](O)[C@@H]4O)ccc2-3)N1 [Compound 243, (5R)-5-[2,7-bis[2-[(2R,3S,4R,5S,6R)-3,4,5-trihydroxy-6-(hydroxymethyl)tetrahydropyran-2-yl]ethynyl]spiro[fluorene-9,4piperidine]-1carbonyl]pyrrolidin-2-one]	0.22
O=C(c1c(C#C[C@H]2O[C@H](CO)[C@@H](O)[C@H](O)[C@@H]2O)ccc2c1C1(CCNCC1)c1cc(C#C[C@H]3O[C@H](CO)[C@@H](O)[C@H](O)[C@@H]3O)ccc1-2)[C@@H]1CCCO1 [Compound 242, [2,7-bis[2-[(2R,3S,4R,5S,6R)-3,4,5-trihydroxy-6-(hydroxymethyl)tetrahydropyran-2-yl]ethynyl]spiro[fluorene-9,4piperidine]-1yl]-[(2S)-tetrahydrofuran-2-yl]methanone]	0.18
COc1cc([C@H]2O[C@H](CO)[C@@H](O)[C@H](O)[C@@H]2O)ccc1-c1ccc([C@H]2O[C@H](CO)[C@@H](O)[C@H](O)[C@@H]2O)cc1 [Compound 67]	40
OC[C@H]1O[C@H](C#Cc2ccc3c(c2)C(=NO)c2cc(C#C[C@H]4O[C@H](CO)[C@@H](O)[C@H](O)[C@@H]4O)ccc2-3)[C@@H](O)[C@@H](O)[C@@H]1O [Compound 163, 2,7-bis[2-[(2R,3S,4R,5S,6R)-3,4,5-trihydroxy-6-(hydroxymethyl)tetrahydropyran-2-yl]ethynyl]fluoren-9-one oxime]	18
OC[C@H]1O[C@H](C#Cc2ccc3c(c2)C(F)(F)c2cc(C#C[C@H]4O[C@H](CO)[C@@H](O)[C@H](O)[C@@H]4O)ccc2-3)[C@@H](O)[C@@H](O)[C@@H]1O [Compound 116, (2R,3S,4R,5S,6R)-2-[2-[9,9-difluoro-7-[2-[(2R,3S,4R,5S,6R)-3,4,5-trihydroxy-6-(hydroxymethyl)tetrahydropyran-2-yl]ethynyl]fluoren-2-yl]ethynyl]-6-(hydroxymethyl)tetrahydropyran-3,4,5-triol]	8.1
O=C(Cn1c2cc(C#C[C@H]3O[C@H](CO)[C@@H](O)[C@H](O)[C@@H]3O)ccc2c2ccc(C#C[C@H]3O[C@H](CO)[C@@H](O)[C@H](O)[C@@H]3O)cc21)NCCN1CCOCC1 [Compound 178, 2-[2,7-bis[2-[(2R,3S,4R,5S,6R)-3,4,5-trihydroxy-6-(hydroxymethyl)tetrahydropyran-2-yl]ethynyl]carbazol-9-yl]-N-(2-morpholinoethyl)acetamide]	3.1
Cc1cc(C#C[C@H]2O[C@H](CO)[C@@H](O)[C@H](O)[C@@H]2O)ccc1[C@H]1O[C@H](CO)[C@@H](O)[C@H](O)[C@@H]1O [Compound 142]	91
OC[C@H]1O[C@H](c2ccc(-c3cccc(-c4ccc([C@H]5O[C@H](CO)[C@@H](O)[C@H](O)[C@@H]5O)cc4)c3)cc2)[C@@H](O)[C@@H](O)[C@@H]1O [Compound 66]	34
OC[C@H]1O[C@H](C#Cc2coc(C#C[C@H]3O[C@H](CO)[C@@H](O)[C@H](O)[C@@H]3O)n2)[C@@H](O)[C@@H](O)[C@@H]1O [Compound 129, (2R,3S,4R,5S,6R)-2-(hydroxymethyl)-6-[2-[2-[2-[(2R,3S,4R,5S,6R)-3,4,5-trihydroxy-6-(hydroxymethyl)tetrahydropyran-2-yl]ethynyl]oxazol-4-yl]ethynyl]tetrahydropyran-3,4,5-triol]	1240
